Where a name gives a salt, the structure may show the parent alone.

The values below come from patent publication US20240279215A1 (Cytokinetics, Incorporated, priority 2022, published 2024).

The assay deals with human NAMPT (Homo sapiens (Human), UniProt P43490). Put plainly: NMN fluorescence biochemical assay (human recombinant NAMPT enzyme assay). A digest of the protocol:
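Activation of recombinant human NAMPT (6 nM) was tested with 2.5 mM ATP, 20 μM PRPP and 150 μM nicotinamide in 50 mM HEPES pH 7.2 for 60 min at ambient temperature. NMN was derivatized with acetophenone/KOH/formic acid and read by fluorescence (355/460 nm) after 40 min.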

Sequence of human NAMPT (P43490 whole entry): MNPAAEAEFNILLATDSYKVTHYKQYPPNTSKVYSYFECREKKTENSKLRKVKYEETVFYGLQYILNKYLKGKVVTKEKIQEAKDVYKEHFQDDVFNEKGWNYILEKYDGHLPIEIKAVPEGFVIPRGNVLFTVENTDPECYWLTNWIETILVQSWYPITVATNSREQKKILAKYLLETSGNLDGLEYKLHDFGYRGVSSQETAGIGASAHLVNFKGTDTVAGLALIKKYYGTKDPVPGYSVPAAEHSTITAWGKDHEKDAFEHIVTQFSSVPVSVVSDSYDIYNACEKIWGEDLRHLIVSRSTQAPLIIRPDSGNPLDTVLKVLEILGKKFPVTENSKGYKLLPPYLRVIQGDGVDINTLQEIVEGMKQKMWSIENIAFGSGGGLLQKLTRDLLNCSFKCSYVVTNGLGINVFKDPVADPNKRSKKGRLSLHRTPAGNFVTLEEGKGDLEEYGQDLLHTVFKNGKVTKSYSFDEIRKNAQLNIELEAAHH

As to `C[C@H]1CCN(C(=O)Cc2ccc(NC(=O)OCc3ccc(Cl)cc3)cc2)C1` [Compound 244, (4-chlorophenyl)methyl N-(4-{2-[(3S)-3-methylpyrrolidin-1-yl]-2-oxoethyl}phenyl)carbamate], the “AC1.4 Human” value came out at 2.39 µM and the EC50 was 5.67 µM.

Turning to `COc1nc(C)ccc1C(=O)NCc1ccc(NC(=O)OCc2ccc(Cl)cc2)cc1` [Compound 245, (4-chlorophenyl)methyl N-(4-{[(2-methoxy-6-methylpyridin-3-yl)formamido]methyl}phenyl)carbamate], the “AC1.4 Human” value is 2.39 µM and the EC50 was determined as 6.35 µM.

As to `C[C@H](NC(=O)c1cnco1)c1ccc(NC(=O)OCc2ccc(Cl)cc2)cc1` [Compound 246, 4-chlorobenzyl (S)-(4-(1-(oxazole-5-carboxamido)ethyl)phenyl)carbamate], the “AC1.4 Human” value came out at 2.43 µM and the EC50 was determined as 6.14 µM.

In the case of `CC(O)(c1ccncc1)c1ccc(NC(=O)OCc2ccc(Cl)cc2)cc1` (stereo not drawn) [Compound 247, 4-chlorobenzyl (4-(1-hydroxy-1-(pyridin-4-yl)ethyl)phenyl)carbamate], the “AC1.4 Human” value stood at 2.45 µM and the EC50 was 16.5 µM.

As for `O=C(Nc1ccc(CNC(=O)c2cccnn2)cc1)OCc1ccc(Cl)cc1` [Compound 248, (4-chlorophenyl)methyl N-{4-[(pyridazin-3-ylformamido)methyl]phenyl}carbamate], the “AC1.4 Human” value was found to be 2.51 µM and the EC50 was determined as 2.4 µM.

In the case of `CN(Cc1ccc(NC(=O)OCc2ccc(Cl)cc2)cc1)C(=O)c1cncc(F)c1` [Compound 250, (4-chlorophenyl)methyl N-(4-{[1-(5-fluoropyridin-3-yl)-N-methylformamido]methyl}phenyl)carbamate], the “AC1.4 Human” value is 2.58 µM and the EC50 was 21.3 µM.

On to `Cc1nocc1C(=O)NCc1ccc(NC(=O)OCc2ccc(Cl)cc2)cc1` [Compound 251, (4-chlorophenyl)methyl N-(4-{[(3-methyl-1,2-oxazol-4-yl)formamido]methyl}phenyl)carbamate], for which the “AC1.4 Human” value was 2.59 µM and the concentration for a half-maximal effect (EC50) is 11 µM.

On to `O=C(Nc1ccc(CCC2CCNCC2)cc1)OCc1cnco1` [Compound 252, oxazol-5-ylmethyl (4-(2-(piperidin-4-yl)ethyl)phenyl)carbamate hydrochloride], for which the “AC1.4 Human” value was found to be 2.60 µM and the EC50 came out at 26.2 µM.

Take `COc1cnn(C)c1C(=O)N(C)Cc1ccc(NC(=O)OCc2ccc(Cl)cc2)cc1` [Compound 253, (4-chlorophenyl)methyl N-(4-{[1-(4-methoxy-2-methylpyrazol-3-yl)-N-methylformamido]methyl}phenyl)carbamate]: the “AC1.4 Human” value came to 2.62 µM and the EC50 was found to be 17.9 µM.

In the case of `Cn1ccc(C(=O)NCc2ccc(NC(=O)OCc3ccc(Cl)cc3)cc2)c1` [Compound 254, (4-chlorophenyl)methyl N-(4-{[(1-methylpyrrol-3-yl)formamido]methyl}phenyl)carbamate], the “AC1.4 Human” value was determined as 2.64 µM and the concentration giving a half-maximal response (EC50) is 15.1 µM.

On to `Cn1ccc(C(=O)NCc2ccc(NC(=O)OCc3ccc(Cl)cc3)cc2)n1` [Compound 255, (4-chlorophenyl)methyl N-(4-{[(1-methylpyrazol-3-yl)formamido]methyl}phenyl)carbamate], for which the “AC1.4 Human” value worked out at 2.65 µM and the EC50 was found to be 31.7 µM.

In the case of `C[C@@H]1CCCN(C(=O)Cc2ccc(NC(=O)OCc3ccc(Cl)cc3)cc2)C1` [Compound 256, (4-chlorophenyl)methyl N-(4-{2-[(3R)-3-methylpiperidin-1-yl]-2-oxoethyl}phenyl)carbamate], the “AC1.4 Human” value worked out at 2.69 µM and the EC50 stood at 10.5 µM.

Regarding `O=C(Nc1ccc(CC(=O)N2CCCC[C@H]2CO)cc1)OCc1ccc(Cl)cc1` [Compound 257, (4-chlorophenyl)methyl N-(4-{2-[(2S)-2-(hydroxymethyl)piperidin-1-yl]-2-oxoethyl}phenyl)carbamate], the “AC1.4 Human” value turned out to be 2.70 µM and the EC50 came out at 31.2 µM.

As to `O=C(Nc1ccc(CNC(=O)N2CCN(CC(F)F)CC2)cc1)OCc1ccc(Cl)cc1` [Compound 258, (4-chlorophenyl)methyl N-(4-{[4-(2,2-difluoroethyl)piperazine-1-carbonylamino]methyl}phenyl)carbamate], the “AC1.4 Human” value worked out at 2.74 µM and the EC50 is 7.62 µM.

Regarding `C[C@H](NC(=O)c1cc(C(F)F)nn1C)c1ccc(NC(=O)OCc2ccc(Cl)cc2)cc1` [Compound 259], the “AC1.4 Human” value stood at 2.75 µM and the EC50 came to 13.9 µM.

Consider `CCc1ncoc1C(=O)N[C@@H](C)c1ccc(NC(=O)OCc2ccc(Cl)cc2)cc1` [Compound 260, (4-chlorophenyl)methyl N-{4-[(1S)-1-[(4-ethyl-1,3-oxazol-5-yl)formamido]ethyl]phenyl}carbamate], for which the “AC1.4 Human” value turned out to be 2.77 µM and the half-maximal effective concentration (EC50) amounted to 14.5 µM.

For the compound `C[C@H]1CCCN(C(=O)Cc2ccc(NC(=O)OCc3ccc(Cl)cc3)cc2)C1` [Compound 261, (4-chlorophenyl)methyl N-(4-{2-[(3S)-3-methylpiperidin-1-yl]-2-oxoethyl}phenyl)carbamate], the “AC1.4 Human” value is 2.83 µM and the EC50 is 9.46 µM.

For `COc1ccc(COC(=O)Nc2ccc(Cc3ccncc3)cc2)cc1` [Compound 262, 4-methoxybenzyl (4-(pyridin-4-ylmethyl)phenyl)carbamate], the “AC1.4 Human” value came out at 2.83 µM and the half-maximal effective concentration (EC50) worked out at 11.9 µM.

`COc1ccc(COC(=O)Nc2ccc([C@H]3CNC(=O)CN3C)cc2)cc1` [Compound 263, 4-methoxybenzyl (S)-(4-(1-methyl-5-oxopiperazin-2-yl)phenyl)carbamate]: the “AC1.4 Human” value stood at 2.92 µM and the EC50 turned out to be 39.1 µM.

Take `Cc1ccc(N(C)C(=O)Cc2ccc(NC(=O)OCc3ccc(Cl)cc3)cc2)cn1` [Compound 264, (4-chlorophenyl)methyl N-(4-{[methyl(6-methylpyridin-3-yl)carbamoyl]methyl}phenyl)carbamate]: the “AC1.4 Human” value was 2.93 µM and the EC50 was determined as 19.7 µM.

`O=C(Nc1ccc(CNC(=O)N2CCC2)cc1)OCc1ccc(Cl)cc1` [Compound 265, (4-chlorophenyl)methyl N-{4-[(azetidine-1-carbonylamino)methyl]phenyl}carbamate]: the “AC1.4 Human” value stood at 2.94 µM and the EC50 is 23.2 µM.

Turning to `C[C@H](NC(=O)C1CC1)c1ccc(NC(=O)OCc2cnco2)cc1` [Compound 266, 1,3-oxazol-5-ylmethyl N-{4-[(1S)-1-(cyclopropylformamido)ethyl]phenyl}carbamate], the “AC1.4 Human” value stood at 2.98 µM and the EC50 was determined as 14.9 µM.

Take `Cc1cnc(C(=O)N[C@@H](C)c2ccc(NC(=O)OCc3ccc(Cl)cc3)cc2)o1` [Compound 267, 4-chlorobenzyl (S)-(4-(1-(5-methyloxazole-2-carboxamido)ethyl)phenyl)carbamate]: the “AC1.4 Human” value turned out to be 3.04 µM and the half-maximal effective concentration (EC50) was 36.5 µM.

For `Cc1cnoc1C(=O)NCc1ccc(NC(=O)OCc2ccc(Cl)cc2)cc1` [Compound 268, (4-chlorophenyl)methyl N-(4-{[(4-methyl-1,2-oxazol-5-yl)formamido]methyl}phenyl)carbamate], the “AC1.4 Human” value was 3.05 µM and the EC50 was determined as 13.8 µM.

For the compound `O=C(Nc1ccc(CCN2CCN(C3COC3)CC2)cc1)OCc1cnco1` [Compound 269, 1,3-oxazol-5-ylmethyl N-(4-{2-[4-(oxetan-3-yl)piperazin-1-yl]ethyl}phenyl)carbamate], the “AC1.4 Human” value came out at 3.13 µM and the EC50 worked out at 44.1 µM.

Consider `O=C(Nc1ccc(CNC(=O)N2CCOCC2)cc1)OCc1ccc(Cl)cc1` [Compound 270, (4-chlorophenyl)methyl N-{4-[(morpholine-4-carbonylamino)methyl]phenyl}carbamate], for which the “AC1.4 Human” value is 3.14 µM and the half-maximal effective concentration (EC50) came to 47.2 µM.

In the case of `O=C(Nc1ccc(CNC(=O)c2cncc(F)c2)cc1)OCc1ccc(Cl)cc1` [Compound 271, (4-chlorophenyl)methyl N-(4-{[(5-fluoropyridin-3-yl)formamido]methyl}phenyl)], the “AC1.4 Human” value stood at 3.15 µM and the EC50 was determined as 4.8 µM.

On to `O=C(Nc1ccc(CNC(=O)c2ccccn2)cc1)OCc1ccc(Cl)cc1` [Compound 272, (4-chlorophenyl)methyl N-{4-[(pyridin-2-ylformamido)methyl]phenyl}carbamate], for which the “AC1.4 Human” value is 3.18 µM and the EC50 was found to be 10.9 µM.

As to `O=C(Cc1ccc(NC(=O)OCc2ccc(Cl)cc2)cc1)Nc1cncc(F)c1` [Compound 273, (4-chlorophenyl)methyl N-(4-{[(5-fluoropyridin-3-yl)carbamoyl]methyl}phenyl)carbamate], the “AC1.4 Human” value was 3.21 µM and the EC50 was found to be 14.4 µM.

Turning to `O=C(Nc1ccc(CC(=O)N2CCC(F)(F)CC2)cc1)OCc1ccc(Cl)cc1` [Compound 274, (4-chlorophenyl)methyl N-{4-[2-(4,4-difluoropiperidin-1-yl)-2-oxoethyl]phenyl}carbamate], the “AC1.4 Human” value was found to be 3.32 µM and the half-maximal effective concentration (EC50) is 6.15 µM.

As to `Cc1ccc(C(=O)NCc2ccc(NC(=O)OCc3ccc(OC(F)F)cc3)cc2)cn1` [Compound 275, (4-(difluoro-13-methyl)phenyl)methyl (4-((6-methylnicotinamido)methyl)phenyl)carbamate], the “AC1.4 Human” value was 3.32 µM and the EC50 was found to be 12.6 µM.

Regarding `Cc1coc(C(=O)NCc2ccc(NC(=O)OCc3ccc(Cl)cc3)cc2)n1` [Compound 276, (4-chlorophenyl)methyl N-(4-{[(4-methyl-1,3-oxazol-2-yl)formamido]methyl}phenyl)carbamate], the “AC1.4 Human” value was 3.32 µM and the EC50 was determined as 18.3 µM.

`CN1CC(C(=O)NCc2ccc(NC(=O)OCc3ccc(Cl)cc3)cc2)CC1=O` (stereo not drawn) [Compound 277, (4-chlorophenyl)methyl N-(4-{[(1-methyl-5-oxopyrrolidin-3-yl)formamido]methyl}phenyl)carbamate]: the “AC1.4 Human” value turned out to be 3.36 µM and the EC50 came out at 39.9 µM.
